In patent publication US20260174761A1 (priority 2022, published 2026):

Experiments:
[1] = system: lipopolysaccharide (LPS)-induced microglial activation; settings: recent studies of the inventors; cited from earlier work
IBD mice = assay: DSS-induced inflammatory bowel disease (IBD) mouse model: colon IL-6 by ELISA and colon length; format: in vivo, C57BL6 mice; settings: for reduction of IL-6 levels within the colon: male mice, 2.5% DSS for 5 days, treatment from day 4 for four days, 2-CL-MGV-1 15 mg/kg, dexamethasone 0.75 mg/kg, vs DSS without treatment
Method: FIG. 1 includes a bar graph showing that interleukin (IL) 6 levels in the gut of IBD mice are reduced in response to 2-CL-MGV-1 treatment. Nine-weeks-old C57BL6 male mice were given 2.5% dextran sulfate sodium (DSS) in drinking water for 5 days. Naive mice were given water only. The treatments: 2-CL-MGV-1 and dexamethasone were given on day 4 for four days. […] ANOVA followed by Bonferroni's post-hoc test was performed. ***p<0.00001 compared to control.
FIG. 2 includes a bar graph showing that the treatment with 2-CL-MGV-1 reduces the shortening of IBD mice colon. Nine-weeks-old C57BL6 male mice were given 2.5% DSS in drinking water for 5 days. Naive mice were given water only. The treatments: 2-CL-MGV-1 and dexamethasone were given on day 4 for four days.
FIG. 4 includes a vertical bar graph showing that IL 6 levels in the gut of IBD mice are reduced in response to 2-CL-MGV-1 treatment. C57BL female mice aged of 8-10 weeks were given 2.5% DSS in their drinking water for 7 days. Vehicle group mice were given water only and DMSO injections on the 4th day for 4 days. DSS group received DSS with DMSO (as a vehicle) that were given on the 4th day for 4 days. The treatment group received 2-CL-MGV-1 (15 mg/kg) and DMSO as a vehicle were given on the 4th day for 4 days. […] ANOVA followed by Bonferroni's post-hoc test was performed. ***p<0.001 compared to control.
FIG. 5 includes a vertical bar graph showing that the treatment with 2-CL-MGV-1 reduces the shortening of IBD mice colon. C57BL female mice aged of 8-10 weeks were given 2.5% DSS in their drinking water for 7 days. Vehicle group mice were given water only and DMSO injections on the 4th day for 4 days. DSS group received DSS with DMSO (as a vehicle) that were given on the 4th day for 4 days. The treatment group received 2-CL-MGV-1 (15 mg/kg) and DMSO (as a vehicle) that were given on the 4th day for 4 days. […] ANOVA followed by Bonferroni's post-hoc test was performed. ***p<0.001 compared to control.
C57BL mice 8-10 weeks old were given 2.5% DSS in their drinking water for 7 days. On the fourth day, the mice were injected subcutaneously (S.C) with either DMSO or 2-CL-MGV-1 (30 μl) for four days. The mice were sacrificed on the eighth day of the experiment.
In the IBD experiment, 2-Cl-MGV-1 was injected subcutaneously for four days, three days after inflammation induction in the colon, using dextran sulfate sodium (DSS). On the following day, the mice were sacrificed, and the colon was removed. Colon lengths were measured, and cytokine levels were detected by ELISA.

[2] = system: human retinal pigment epithelium (RPE)-19 cell line; assay: In vitro AMD model: RPE-19 cells stimulated with TNF-α and INF-γ (TI), secreted pro-inflammatory mediators; format: cell-based; settings: RPE cells pretreated with compound, TNF-α and INF-γ stimulation
Source text: TNF-α and INF-γ stimulation (TI).
Next, the effect of 2-CL-MGV-1 was examined in an in vitro model of age-related macular degeneration (AMD). Human retinal pigment epithelium (RPE)-19 cell line stimulated with TNF-α and INF-γ (TI) are known to mimic AMD by complement activation and increased levels of circulating cytokines.

[3] = high concentrations (above 100 μM); cited from earlier work
[4] = female mice, 2.5% DSS for 7 days, 2-CL-MGV-1 15 mg/kg s.c. from 4th day for 4 days, vs DSS+vehicle (DMSO)

| Compound | LPS-induced microglial activation [1] | decrease in IL-6 content in the colon (IBD mice; [4]) | increase in colon length (IBD mice; [4]) | colon shrinkage effect compared to dexamethasone (IBD mice; male DSS mice, 2-CL-MGV-1 15 mg/kg vs dexamethasone 0.75 mg/kg) | colon shrinkage (shortening) effect (IBD mice; male and female DSS mice, 2-CL-MGV-1 15 mg/kg for four days) | reduction of IL-6 levels within the colon (IBD mice) | effect on IL-6 secretion relative to dexamethasone (DEX) treatment (IBD mice; murine IBD model, compared to DEX) | TI-induced secretion of IL-8 [2] | TI-induced secretion of complement C3 [2] | TI-induced secretion of complement C5 [2] | TI-induced secretion of reactive oxygen species (ROS) [2] | lethal effects [3] |
| --- | --- | --- | --- | --- | --- | --- | --- | --- | --- | --- | --- | --- |
| CN(C)C(=O)Oc1nc(-c2ccccc2Cl)nc2ccccc12 [2-Cl-MGV-1, 2-chlorophenyl quinazolin-4-yl dimethylcarbamate] | inhibit | 64% | 26% | significantly more pronounced | alleviated the colon shrinkage effect | 75% | about 75% | significantly reduced | significantly reduced | significantly reduced | significantly reduced | very few lethal effects |
| CCC(C)N(C)C(=O)c1cc2ccccc2c(-c2ccccc2Cl)n1 (centres unmarked) [PK 11195, reference compound] | – | – | – | – | – | – | – | – | – | – | – | pronounced lethal effects |
| C[C@@H]1C[C@H]2[C@@H]3CCC4=CC(=O)C=C[C@]4(C)[C@@]3(F)[C@@H](O)C[C@]2(C)[C@@]1(O)C(=O)CO [dexamethasone, reference compound] | – | – | – | – | – | 20% | – | – | – | – | – | – |
